The values that follow come from patent US20260373229A1, “TOPICALLY APPLICABLE PREPARATION FOR IMPROVING SKIN CONDITION” (priority 2022, published 2026).

Values after ≈ are worked out from the molar mass of the structure shown.

For one test, the system named is S. aureus DSM20231. Kind of test: Growth of S. aureus DSM20231 in microtiter plates (OD600, aerobic, 24 h). The test is classed as cell-based, Staphylococcus aureus. The note with it: for synergistic effect with ISW1-2 on S. aureus growth: with 0.00002% ISW1-2, FIGS. 3 to 10. The method, then: (§1) S. aureus DSM20231 and S. epidermidis ATTC12228 were incubated under aerobic conditions at 37 °C with constant shaking. The overnight cultures were diluted 1:10000 in MHB (Müller Hinton Broth: starch 1.5 g/l; meat infusion 2.0 g/l; peptone from casein (hydrolyzed) 17.5 g/l; pH: 7.4±0.2) and seeded in microtiter plates. […] These experiments were repeated in the presence of a non-inhibitory ISW1-2 concentration (0.00002% ISW1-2). To estimate bacterial growth, the optical density (OD) was measured photometrically at a wavelength of 600 nm (OD600). Increasing values indicate bacterial growth (mean value from three independent experiments).
Staphylococcus aureus DSM20231 was incubated without ISW1-2 (FIGS. 3, 5, 7, 9) and with a non-inhibitory concentration of 0.00002% ISW1-2 (FIGS. 4, 6, 8, 10), wherein different concentrations of licochalcone Extract; licochalcone A; licochalcone C and licochalcone E (0 μg/ml=control; 1 μg/ml; 2 μg/ml) were present. FIGS. 3 to 10 show the bacterial growth over 24 hours under the different conditions (mean values from three independent experiments).
(§2) Bacterial growth is measured by the increase in turbidity in the medium (OD600), i.e. an increase in OD over time indicates bacterial growth.
FIGS. 7 and 8 show the studies with ISW1-2 and licochalcone C. Four different amounts of licochalcone C were used (0%, control; 1 μg/ml; 2 μg/ml and 4 μg/ml), alone (FIG. 7) and with 0.00002% ISW1-2 (FIG. 8).
FIGS. 9 and 10 show the studies with ISW1-2 and licochalcone E. Three different amounts of licochalcone E were used (0%, control; 1 μg/ml; 2 μg/ml), alone (FIG. 9) and with 0.00002% ISW1-2 (FIG. 10).

The subject of a further test is S. epidermidis ATTC12228. Kind of test: Growth of S. epidermidis 12228 in microtiter plates (OD600, aerobic, 24 h). It is filed as cell-based, Staphylococcus epidermidis. Conditions: for effect on growth of S. epidermidis (OD600): 1 μg/ml, 2 μg/ml, without ISW1-2, 24 h, FIGS. 11, 13, 15, 17. The protocol:
as §1
In further comparative studies, the influence of the combination of compounds according to the invention was also determined on skin commensal germs, such as S. epidermidis (FIGS. 11 to 18).
For this purpose, Staphylococcus epidermidis 12228 was incubated without ISW1-2 (FIGS. 11, 13, 15, 17) and with a non-inhibitory concentration of 0.00002% ISW1-2 (FIGS. 12, 14, 16, 18), wherein different concentrations of licochalcone extract; licochalcone A; licochalcone C and licochalcone E (0 μg/ml=control; 1 μg/ml; 2 μg/ml) were present. The bacterial growth over 24 h under the different conditions is shown (mean values from three independent experiments).
as §2

A further test deals with Staphylococcus aureus. Kind of test: Minimum inhibitory concentration / antimicrobial activity against Staphylococcus aureus in vitro. It is filed as cell-based. The note with it: for minimum inhibitory concentration (MIC): Staphylococcus aureus.
Test [1] has as its system innate immune response of the skin. The note with it: in synergy with factors originating from the host and microbiome; cited from earlier work.
In test [2] the test system is membrane potential of the bacteria.
The subject of another test is C. acnes DSM1897. Kind of test: Growth of C. acnes DSM1897 in microtiter plates (OD600, anaerobic, 5 days). It is filed as cell-based, Cutibacterium acnes (Propionibacterium acnes). The method, then: The effect of the preparations according to the invention on the growth of C. acnes, S. aureus and S. epidermidis was investigated in in vitro studies.
C. acnes DSM1897 was incubated under anaerobic conditions at 37 °C. The overnight culture was diluted 1:1000 in Caso medium (casein peptone 17 g/l; soybean meal peptone 3 g/l; sodium chloride 5 g/l; glucose 2.5 g/l; dipotassium hydrogen phosphate 2.5 g/l; pH 7.3±0.2) and seeded in microtiter plates. Different concentrations of the plant extract Glycyrrhiza inflata and licochalcone A (1 μg/ml, 2 μg/ml) were added, mixed and incubated anaerobically at 37 °C for 5 days. […] The optical density (OD) was measured photometrically at a wavelength of 600 nm (OD600) to estimate the growth of the bacteria. […]
Unless otherwise stated, the quantities refer to the weight of the compound per volume of medium, e.g. 1 μg/ml means 1 μg licochalcone A in 1 ml medium. The percentage quantities of ISW1-2 refer to the weight of ISW1-2 in relation to the total weight of the respective test preparation.
C. acnes 1897 was incubated without ISW1-2 (FIG. 1 shaded) and with a non-inhibitory concentration of 0.00001% ISW1-2 (FIG. 1 black), wherein different concentrations of licochalcone A Extract (0 μg/ml=control; 1 μg/ml; 2 μg/ml) were added. Bacterial growth or inhibition is measured by the increase/reduction of turbidity in the medium (OD600). […]

On to `C=C(C)[C@@H](C)c1cc(/C=C/C(=O)c2ccc(O)cc2)c(OC)cc1O` [licochalcone E], for which, in the test with S. aureus DSM20231, the “synergistic effect with ISW1-2 on S. aureus growth” value was “better synergistic effect with ISW1-2, similar to licochalcone A”. In addition, the “effect on growth of S. epidermidis (OD600)” value (“effect on growth” below) in the test with S. epidermidis ATTC12228 is on record as “No influence on the growth of S. epidermidis was observed”.

Turning to `CC(C)C[C@H]1NC(=O)[C@H](Cc2c[nH]c3ccccc23)NC(=O)[C@@H](C(C)C)NC(=O)[C@H]2NC(SC2(C)C)[C@H](C(C)C)NC(=O)[C@@H](Cc2c[nH]c3ccccc23)NC(=O)[C@H](C(C)C)NC1=O` [ISW1-2, cyclo [N-DVal-LTrp-DLeu-LVal-DTrp-LMe2Thz(LVal)-C]], the “growth inhibition of S. aureus (OD600)” value with S. aureus DSM20231 (0.00002% ISW1-2 alone, 37 °C, 24 h) was “non-inhibitory”. In the test on Staphylococcus aureus, the “sensitivity of skin pathogens such as Staphylococcus aureus” value was “particularly sensitive” and the “minimum inhibitory concentration (MIC)” value turned out to be 3.1 µg/mL (≈ 3.45 µM). In addition, the “minimum inhibitory concentration (MIC)” value with Staphylococcus aureus (3.1 μg/ml expressed in %) came to 0.00031%. Further, the “effect on innate immune response of the skin” value in test [1] is reported as “supports the innate immune response of the skin”. Also, the mechanism of action result in test [2] (antibacterial effect) was “based on proton translocation while maintaining membrane integrity”. Further, in test [2] (bacteria), the “correlation of antibacterial effect with membrane potential drop” value is “correlates strongly with the drop of the membrane potential of the bacteria”. The “growth inhibition of C. acnes (OD600)” value with C. acnes DSM1897 (0.00001% ISW1-2 alone, anaerobic, 37 °C, 5 days) is “non-inhibitory”. In addition, in the test with S. epidermidis ATTC12228 (0.00002% ISW1-2 alone, 24 h), the “growth inhibition of S. epidermidis (OD600)” value was “non-inhibitory”.

Turning to `C=CC(C)(C)c1cc(/C=C/C(=O)c2ccc(O)cc2)c(OC)cc1O` [licochalcone A], the “growth inhibition of C. acnes (OD600)” value with C. acnes DSM1897 (pure extract or pure licochalcone A without ISW1-2, FIGS. 1 and 2) is “only a minor inhibitory effect”. Besides, the “effect on growth” value in the test on S. epidermidis ATTC12228 is “No influence on the growth of S. epidermidis was observed”.

For the compound `COc1c(/C=C/C(=O)c2ccc(O)cc2)ccc(O)c1CC=C(C)C` [licochalcone C], the “synergistic effect with ISW1-2 on S. aureus growth” value in the test on S. aureus DSM20231 is on record as “somewhat less synergistically with ISW1-2 than licochalcone A”. Also, the “effect on growth” value in the test with S. epidermidis ATTC12228 is on record as “No influence on the growth of S. epidermidis was observed”.
